Laboratory results: ChEMBL document CHEMBL1152923, “ent-Kaurane diterpenoids from Isodon pharicus” (J Nat Prod, 2009)
pIC50: −log10 of the molar value.

Assays:
Format in all cases: functional, cell-based
MCF7 = test: Cytotoxicity against human MCF7 cells after 48 hrs by SRB method; conditions: MCF7, 48 h
A549 = test: Cytotoxicity against human A549 cells after 48 hrs by SRB method; conditions: A549, 48 h
PC-3 = test: Cytotoxicity against human PC3 cells after 48 hrs by SRB method; conditions: PC-3, 48 h
NB-4 = test: Cytotoxicity against human NB4 cells after 48 hrs by SRB method; conditions: NB-4, 48 h
SH-SY5Y = test: Cytotoxicity against human SH-SY5Y cells after 48 hrs by SRB method

SMILES | pIC50 (MCF7) | pIC50 (A549) | pIC50 (PC-3) | pIC50 (NB-4) | pIC50 (SH-SY5Y)
C=C1[C@H]2[C@@H](OC(C)=O)[C@@]3(CC[C@@H]4C(C)(C)[C@@H](O)CC[C@@]4(C)[C@@H]3C[C@@H]2O)[C@@H]1O | < 5.00 | < 5.00 | < 5.00 | < 5.00 | < 5.00
C=C1C(=O)[C@@]23[C@H](O)C[C@@H]4C(C)(C)[C@@H](OC(C)=O)C[C@H](O)[C@@]4(C)[C@@H]2CC(=O)[C@@H]1[C@H]3O [PSEURATA F] | < 5.00 | < 5.00 | < 5.00 | < 5.00 | < 5.00
C=C1C(=O)[C@@]23[C@H](O)C[C@@H]4C(C)(C)[C@@H](OC(C)=O)C[C@H](O)[C@@]4(C)[C@@H]2C[C@H](O)[C@@H]1[C@H]3O | < 5.00 | < 5.00 | < 5.00 | < 5.00 | < 5.00
C=C1C(=O)[C@@]23[C@H](O)C[C@@H]4C(C)(C)[C@H](O)CC[C@@]4(C)[C@@H]2C[C@H](OC(C)=O)[C@@H]1[C@H]3O | < 5.00 | < 5.00 | < 5.00 | 5.08 | 5.09
C=C1C(=O)[C@@]23[C@H](O)C[C@@H]4C(C)(C)[C@@H](OC(C)=O)CC[C@@]4(C)[C@@H]2CC[C@@H]1[C@H]3O [LEUKAMENIN E] | < 5.00 | < 5.00 | < 5.00 | 5.40 | < 5.00
C=C1C(=O)[C@@]23[C@H](O)C[C@@H]4C(C)(C)[C@@H](OC(C)=O)C[C@H](O)[C@@]4(C)[C@@H]2CC[C@@H]1[C@H]3O [ISODOMEDIN] | < 5.00 | < 5.00 | < 5.00 | 5.14 | < 5.00
C=C1C(=O)[C@@]23[C@H](O)C[C@@H]4C(C)(C)[C@@H](O)C[C@H](O)[C@@]4(C)[C@@H]2CC[C@@H]1[C@H]3O [MINHERYIN G] | < 5.00 | < 5.00 | < 5.00 | < 5.00 | < 5.00
C=C1C(=O)[C@@]23[C@H](O)C[C@@H]4C(C)(C)[C@@H](OC(C)=O)CC[C@@]4(C)[C@@H]2CC(=O)[C@@H]1[C@H]3O [PSEURATA C] | < 5.00 | 5.12 | < 5.00 | 5.68 | < 5.00
C=C1C(=O)[C@@]23[C@H](O)C[C@@H]4C(C)(C)C(=O)CC[C@@]4(C)[C@@H]2CC[C@@H]1[C@H]3O [GLAUCOCALYXIN A] | 5.06 | 5.27 | < 5.00 | 5.54 | < 5.00
C=C1C(=O)[C@@]23C(CC[C@@H]1[C@H]2O)[C@]1(C)CC[C@@H](O)C(C)(C)[C@H]1C[C@H]3O (stereo not given in full) [PSEURATA A] | 5.04 | 5.53 | < 5.00 | 5.11 | < 5.00
C=C1C(=O)[C@@]23[C@@H]4OC(C)(C)O[C@@H]2C[C@@H]2C(C)(C)[C@H](O)CC[C@@]2(C)[C@@H]3C[C@H](O)[C@@H]14 | < 5.00 | 5.22 | < 5.00 | 5.45 | < 5.00
C=C1[C@@H]2C(=O)C[C@H]3[C@@]4(C)[C@H](C[C@@H](O)[C@@]3([C@@H]1O)[C@@H]2O)C(C)(C)[C@@H](OC(C)=O)C[C@@H]4O [DIHYDROPSEURATA F] | < 5.00 | < 5.00 | < 5.00 | < 5.00 | < 5.00
C=C1C(=O)[C@@]23C(CC[C@@H]1[C@H]2O)[C@]1(C)CC[C@H](O)C(C)(C)[C@H]1C[C@H]3O (stereo not given in full) [WANGZAOZIN A] | 5.24 | 5.03 | < 5.00 | 5.04 | < 5.00
C=C1C(=O)[C@]23[C@H](O)[C@H]1C(=O)C[C@H]2[C@]1(C)CC[C@H](OC(C)=O)C(C)(C)[C@H]1C[C@H]3OC(C)=O | < 5.00 | < 5.00 | < 5.00 | < 5.00 | < 5.00
COC[C@@H]1C(=O)[C@@]23[C@H](O)C[C@@H]4C(C)(C)[C@@H](OC(C)=O)CC[C@@]4(C)[C@@H]2CC(=O)[C@@H]1[C@H]3O | < 5.00 | < 5.00 | 5.13 | 5.06 | < 5.00
C=C1C(=O)[C@@]23[C@H](O)C[C@@H]4C(C)(C)[C@H](O)CC[C@@]4(C)[C@@H]2C[C@H](O)[C@@H]1[C@H]3O [PSEURATA B] | < 5.00 | < 5.00 | < 5.00 | < 5.00 | < 5.00
C=C1C(=O)[C@@]23[C@H](O)C[C@@H]4C(C)(C)C(=O)CC[C@@]4(C)[C@@H]2CC[C@@H]1[C@H]3OC(C)=O [GLAUCOCALYXIN B] | < 5.00 | 5.21 | < 5.00 | 5.10 | < 5.00
C=C1C(=O)[C@@]23[C@H](O)C[C@@H]4C(C)(C)[C@@H](O)CC[C@@]4(C)[C@@H]2C[C@H](O)[C@@H]1[C@H]3O [3-EPIPSEURATA B] | < 5.00 | < 5.00 | < 5.00 | < 5.00 | < 5.00
